This experiment addresses T1, CDK2 (Homo sapiens, UniProt P24941).
T1 construct: endogenous in cells; host or cells: MKN1 cells
Put plainly: CDK2 degradation in MKN1 cells (AlphaLISA). The class given is cell-based. The settings on record: 14 h incubation; for DC50: read-out: CDK2 degradation 14 h: Mean external-Abs DC50. A digest of the protocol: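 MKN1 cells (2e4/well) treated 14 h at 37° C with 11-point 1:5 dilutions (0.001 nM-10 μM, 0.1% DMSO). CDK2 in lysates quantified by AlphaLISA, no-cell background subtracted; DC50 from four-parameter logistic fit.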

The text below walks through data of patent US20240173419A1, “CDK2 DEGRADERS AND USES THEREOF” (Kymera Therapeutics, Inc., priority 2022, published 2024).

Consider `CC1CC(NS(=O)(=O)c2ccc(Nc3ncc(C(F)(F)F)c(N4CCCC(C)(O)C4)n3)c(F)c2)CCN1CC1CCN(c2ccc(C3CCC(=O)NC3=O)c(F)c2)CC1` (stereo not shown) [I-1059], for which the “CDK2 degradation 14 h: Average Dmax %” value is recorded as “A (A (>75% o))” and the DC50 was under 100 nM.
On to `CC1CC(NS(=O)(=O)c2ccc(Nc3ncc(C(F)(F)F)c(N4CCCC(C)(O)C4)n3)c(F)c2)CCN1CC1CCN(c2ccc(C3CCC(=O)NC3=O)c(F)c2)CC1` (stereo not shown) [I-1060], for which the “CDK2 degradation 14 h: Average Dmax %” value is reported as “A (A (>75% o))” and the 50% degradation concentration (DC50) was under 100 nM.
The matching figures for `CC1CN(CC2CCN(c3ccc(C4CCC(=O)NC4=O)c(F)c3)CC2)CCC1NS(=O)(=O)c1ccc(Nc2ncc(C(F)(F)F)c(N3CCCC(C)(O)C3)n2)c(F)c1` (stereo not shown) [I-1061]: “A (A (>75% o))” and under 100 nM.
With `CC1CN(CC2CCN(c3ccc(C4CCC(=O)NC4=O)c(F)c3)CC2)CCC1NS(=O)(=O)c1ccc(Nc2ncc(C(F)(F)F)c(N3CCCC(C)(O)C3)n2)c(F)c1` (stereo not shown) [I-1062], the “CDK2 degradation 14 h: Average Dmax %” value is reported as “A (A (>75% o))” and the DC50 is under 100 nM.
Taken in the same sequence, the figures for `CC1CN(CC2CCN(c3ccc(C4CCC(=O)NC4=O)c(F)c3)CC2)CCC1NS(=O)(=O)c1ccc(Nc2ncc(C(F)(F)F)c(N3CCCC(C)(O)C3)n2)c(F)c1` (stereo not shown) [I-1063] were “A (A (>75% o))” and under 100 nM.
Regarding `CC1(O)CCCN(c2nc(Nc3ccc(S(=O)(=O)NC4CCC5(CC4)CN(CC4CCN(c6ccc(C7CCC(=O)NC7=O)c(F)c6)CC4)C5)cc3F)ncc2C(F)(F)F)C1` (stereo not shown) [I-1064], the “CDK2 degradation 14 h: Average Dmax %” value is given as “A (A (>75% o))” and the half-maximal degradation concentration (DC50) is under 100 nM.
As to `Cc1nn(C2CCC(=O)NC2=O)c2ccc(N3CCN(CC4CCC(NS(=O)(=O)c5ccc(Nc6ncc(C(F)(F)F)c(N7CCCC(C)(O)C7)n6)c(F)c5)CC4)CC3)cc12` (stereo not shown) [I-1065], the “CDK2 degradation 14 h: Average Dmax %” value was “A (A (>75% o))” and the DC50 was under 100 nM.
Take `Cc1cc(S(=O)(=O)NC2CCC(CN3CCN(c4ccc(C5CCC(=O)NC5=O)c(F)c4)CC3)CC2)ncc1Nc1ncc(C(F)(F)F)c(N2CCCC(C)(O)C2)n1` (stereo not shown) [I-1066]: the “CDK2 degradation 14 h: Average Dmax %” value was “A (A (>75% o))” and the half-maximal degradation concentration (DC50) was under 100 nM.
Consider `CC(C1CCN(c2ccc(C3CCC(=O)NC3=O)c(F)c2)CC1)N1CCC(NS(=O)(=O)c2ccc(Nc3ncc(C(F)(F)F)c(N4CCCC(C)(O)C4)n3)c(F)c2)C(F)C1` (stereo not shown) [I-1067], for which the “CDK2 degradation 14 h: Average Dmax %” value is “A (A (>75% o))” and the DC50 is under 100 nM.
Take `CC1(O)CCCN(c2nc(Nc3ccc(S(=O)(=O)NC4CCN(CC5(C)CCN(c6ccc(C7CCC(=O)NC7=O)cc6F)CC5)CC4F)cc3F)ncc2C(F)(F)F)C1` (stereo not shown) [I-1068]: the “CDK2 degradation 14 h: Average Dmax %” value is given as “A (A (>75% o))” and the DC50 lay within 100 to 500 nM.
For the compound `CC1(O)CCCN(c2nc(Nc3ccc(S(=O)(=O)NC4CCN(CC5(C)CCN(c6ccc(C7CCC(=O)NC7=O)c(F)c6)CC5)CC4F)cc3F)ncc2C(F)(F)F)C1` (stereo not shown) [I-1069], the “CDK2 degradation 14 h: Average Dmax %” value is listed as “A (A (>75% o))” and the half-maximal degradation concentration (DC50) was under 100 nM.
Take `COCc1cc(S(=O)(=O)NC2CCC(CN3CCN(c4ccc(C5CCC(=O)NC5=O)c(F)c4)CC3)CC2)ccc1Nc1ncc(C(F)(F)F)c(N2CCCC(C)(O)C2)n1` (stereo not shown) [I-1070]: the “CDK2 degradation 14 h: Average Dmax %” value was “A (A (>75% o))” and the 50% degradation concentration (DC50) is under 100 nM.
`Cc1cc(S(=O)(=O)NC2CCC(CN3CCN(c4ccc(C5CCC(=O)NC5=O)c(F)c4)CC3)CC2)ccc1Nc1ncc(C(F)(F)F)c(N2CCCC(C)(O)C2)n1` (stereo not shown) [I-1072]: the DC50 is under 100 nM.
For `[2H]C([2H])([2H])c1cc(S(=O)(=O)NC2CCC(CN3CCN(c4ccc(C5CCC(=O)NC5=O)c(F)c4)CC3)CC2)ccc1Nc1ncc(C(F)(F)F)c(N2CCCC(C)(O)C2)n1` (stereo not shown) [I-1072], the “CDK2 degradation 14 h: Average Dmax %” value is on record as “A (A (>75% o))”.
Take `CC1(O)CCCN(c2nc(Nc3ccc(S(=O)(=O)NC4CC(CCN5CCN(c6ccc(C7CCC(=O)NC7=O)c(F)c6)CC5)C4)cc3C(F)F)ncc2C(F)(F)F)C1` (stereo not shown) [I-1073]: the “CDK2 degradation 14 h: Average Dmax %” value is on record as “B (B (>50% -75%))” and the DC50 is under 100 nM.
As to `CC1(O)CCC(c2nc(Nc3ccc(S(=O)(=O)NC4CCC(CN5CCN(c6ccc(C7CCC(=O)NC7=O)c(F)c6)CC5)CC4)cc3F)ncc2C(F)(F)F)CC1` (stereo not shown) [I-1074], the “CDK2 degradation 14 h: Average Dmax %” value is on record as “A (A (>75% o))” and the DC50 was in the range of 100 to 500 nM.
On to `CC1(O)CCCN(c2nc(Nc3ccc(S(=O)(=O)NC4CCC(CCN5CCN(c6ccc(C7CCC(=O)NC7=O)c(F)c6)CC5)CC4)cc3C(F)F)ncc2C(F)(F)F)C1` (stereo not shown) [I-1076], for which the “CDK2 degradation 14 h: Average Dmax %” value is recorded as “B (B (>50% -75%))” and the half-maximal degradation concentration (DC50) is 100 to 500 nM.
Turning to `Cc1cc(S(=O)(=O)NC2CCC(CN3CCN(c4ccc(C5CCC(=O)NC5=O)c(F)c4)CC3)CC2)c(F)cc1Nc1ncc(C(F)(F)F)c(N2CCCC(C)(O)C2)n1` (stereo not shown) [I-1096], the “CDK2 degradation 14 h: Average Dmax %” value is given as “A (A (>75% o))” and the half-maximal degradation concentration (DC50) was under 100 nM.
In the case of `Cc1cc(S(=O)(=O)NC2CCC(CN3CCN(c4ccc(C5CCC(=O)NC5=O)c(F)c4)CC3)CC2)cc(F)c1Nc1ncc(C(F)(F)F)c(N2CCCC(C)(O)C2)n1` (stereo not shown) [I-1097], the “CDK2 degradation 14 h: Average Dmax %” value was “A (A (>75% o))” and the DC50 is under 100 nM.
For `CC1(O)CCCN(c2nc(Nc3ccc(S(=O)(=O)NC4CCC(CN5CCN(c6ccc(C7CCC(=O)NC7=O)cc6)CC5)CC4)cc3Cl)ncc2C(F)(F)F)C1` (stereo not shown) [I-1100], the “CDK2 degradation 14 h: Average Dmax %” value was “A (A (>75% o))” and the DC50 is under 100 nM.
Taken in the same sequence, the figures for `CC1(O)CCCN(c2nc(Nc3ccc(S(=O)(=O)NC4CCC(CN5CCN(c6ccc(C7CCC(=O)NC7=O)cc6)CC5)CC4)cc3C(F)(F)F)ncc2C(F)(F)F)C1` (stereo not shown) [I-1101] were “B (B (>50% -75%))” and 100 to 500 nM.
Take `CC1(O)CCCN(c2nc(Nc3ccc(S(=O)(=O)NC4CCC(CN5CCN(c6ccc(C7CCC(=O)NC7=O)cc6)CC5)CC4)cc3C(F)F)ncc2C(F)(F)F)C1` (stereo not shown) [I-1102]: the “CDK2 degradation 14 h: Average Dmax %” value is listed as “A (A (>75% o))” and the DC50 is under 100 nM.
With `CC1(O)CCCN(c2nc(Nc3ccc(S(=O)(=O)NC4CCC(CN5CCN(c6ccc(C7CCC(=O)NC7=O)c(Cl)c6)CC5)CC4)cc3C(F)(F)F)ncc2C(F)(F)F)C1` (stereo not shown) [I-1103], the “CDK2 degradation 14 h: Average Dmax %” value is listed as “C (C (>25% -50%))” and the DC50 is over 1000 nM.
Consider `CC1(O)CCCN(c2nc(Nc3ccc(S(=O)(=O)NC4CCC(CN5CCN(c6ccc(C7CCC(=O)NC7=O)c(Cl)c6)CC5)CC4)cc3C(F)F)ncc2C(F)(F)F)C1` (stereo not shown) [I-1104], for which the “CDK2 degradation 14 h: Average Dmax %” value was “A (A (>75% o))” and the 50% degradation concentration (DC50) is under 100 nM.
For the compound `Cc1c(Nc2ncc(C(F)(F)F)c(N3CCCC(C)(O)C3)n2)ccc(S(=O)(=O)NC2CCC(CN3CCN(c4ccc(C5CCC(=O)NC5=O)c(F)c4)CC3)CC2)c1F` (stereo not shown) [I-1105], the “CDK2 degradation 14 h: Average Dmax %” value was “A (A (>75% o))” and the half-maximal degradation concentration (DC50) was under 100 nM.
The matching figures for `CC1(O)CCCN(c2nc(Nc3ccc(S(=O)(=O)NC4CCC(CN5CCN(c6ccc(C7CCC(=O)NC7=O)c(Cl)c6)CC5)CC4)cc3F)ncc2C(F)(F)F)C1` (stereo not shown) [I-1107]: “A (A (>75% o))” and under 100 nM.
The matching figures for `CC1(O)CCCN(c2nc(Nc3ccc(S(=O)(=O)NC4CCC(CN5CCN(c6ccc(C7CCC(=O)NC7=O)cc6F)CC5)CC4)cc3C(F)(F)F)ncc2C(F)(F)F)C1` (stereo not shown) [I-1110]: “B (B (>50% -75%))” and 100 to 500 nM.
Taken in the same sequence, the figures for `CC1(O)CCCN(c2nc(Nc3ccc(S(=O)(=O)NC4CCC(CN5CCN(c6ccc(C7CCC(=O)NC7=O)cc6F)CC5)CC4)cc3OC(F)F)ncc2C(F)(F)F)C1` (stereo not shown) [I-1111] were “A (A (>75% o))” and 100 to 500 nM.
Take `CC1(O)CCCN(c2nc(Nc3ccc(S(=O)(=O)NC4CCC(CN5CCN(c6ccc(C7CCC(=O)NC7=O)cc6F)CC5)CC4)cc3Cl)ncc2C(F)(F)F)C1` (stereo not shown) [I-1112]: the “CDK2 degradation 14 h: Average Dmax %” value is listed as “A (A (>75% o))” and the DC50 is under 100 nM.
In the case of `CC1(O)CCCN(c2nc(Nc3ccc(S(=O)(=O)NC4CCC(CN5CCN(c6ccc(C7CCC(=O)NC7=O)cc6F)CC5)CC4)cc3C(F)F)ncc2C(F)(F)F)C1` (stereo not shown) [I-1113], the “CDK2 degradation 14 h: Average Dmax %” value was “A (A (>75% o))” and the DC50 was under 100 nM.
With `CC1(O)CCCN(c2nc(Nc3ccc(S(=O)(=O)NC4CCC(CN5CCN(c6ccc(C7CCC(=O)NC7=O)c(F)c6)CC5)CC4)cc3C(F)(F)F)ncc2C(F)(F)F)C1` (stereo not shown) [I-1114], the “CDK2 degradation 14 h: Average Dmax %” value is listed as “B (B (>50% -75%))” and the DC50 fell in the range of 100 to 500 nM.
`CC1(O)CCCN(c2nc(Nc3ccc(S(=O)(=O)NC4CCC(CN5CCN(c6ccc(C7CCC(=O)NC7=O)c(F)c6)CC5)CC4)cc3OC(F)F)ncc2C(F)(F)F)C1` (stereo not shown) [I-1115]: the “CDK2 degradation 14 h: Average Dmax %” value was “A (A (>75% o))” and the DC50 was in the range of 100 to 500 nM.
Take `CC1(O)CCCN(c2nc(Nc3ccc(S(=O)(=O)NC4CCC(CN5CCN(c6ccc(C7CCC(=O)NC7=O)c(F)c6)CC5)CC4)cc3F)ncc2C(F)(F)F)C1` (stereo not shown) [I-1117]: the “CDK2 degradation 14 h: Average Dmax %” value is reported as “A (A (>75% o))” and the DC50 is under 100 nM.
The matching figures for `Cc1cc(S(=O)(=O)NC2CCC(CN3CCN(c4cccc(NC5CCC(=O)NC5=O)c4)CC3)CC2)ccc1Nc1ncc(C(F)(F)F)c(N2CCCC(C)(O)C2)n1` (stereo not shown) [I-1118]: “A (A (>75% o))” and under 100 nM.
In the case of `Cc1cc(S(=O)(=O)NC2CCC(CN3CCN(c4cc(NC5CCC(=O)NC5=O)ccc4F)CC3)CC2)ccc1Nc1ncc(C(F)(F)F)c(N2CCCC(C)(O)C2)n1` (stereo not shown) [I-1120], the “CDK2 degradation 14 h: Average Dmax %” value is “A (A (>75% o))” and the DC50 is under 100 nM.
For the compound `Cc1cc(S(=O)(=O)NC2CCC(CN3CCN(c4cc(F)cc(NC5CCC(=O)NC5=O)c4)CC3)CC2)ccc1Nc1ncc(C(F)(F)F)c(N2CCCC(C)(O)C2)n1` (stereo not shown) [I-1122], the “CDK2 degradation 14 h: Average Dmax %” value is reported as “A (A (>75% o))” and the DC50 was under 100 nM.
